Legend:
[1] = Molar enthalpy of transition or fusion; settings: Crystal; DSC
[2] = for vapor or sublimation pressure: Transpiration method; for Normal melting temperature: DTA

NC(=O)c1ccncc1 [4-pyridinecarboxamide]
Settings | Molar enthalpy of transition or fusion [kcal/mol]
[1] | 5.52

[2], Crystal
Settings | vapor or sublimation pressure [kPa]
358.2 K | 0.00043
363.3 K | 0.00072
368.4 K | 0.00117
373.4 K | 0.0019
373.5 K | 0.00191
378.5 K | 0.00296
383.7 K | 0.00472
388.7 K | 0.00724
393.8 K | 0.01115
398.8 K | 0.01672
404 K | 0.02482
409 K | 0.03719

Settings | Normal melting temperature [°C]
[2], Crystal | 155.2

NC(=O)c1ccccn1 [2-pyridinecarboxamide]
Settings | Molar enthalpy of transition or fusion [kcal/mol]
[1] | 4.59

[2]
Settings | vapor or sublimation pressure [kPa]
343 K, Crystal | 0.0079
348 K, Crystal | 0.0125
353.1 K, Crystal | 0.0192
353.2 K, Crystal | 0.0194
358.2 K, Crystal | 0.0302
363.3 K, Crystal | 0.0459
368.3 K, Crystal | 0.0687
373.3 K, Crystal | 0.1028
385.4 K, Liquid | 0.2394
390.4 K, Liquid | 0.3199
395.5 K, Liquid | 0.416
400.6 K, Liquid | 0.5427
405.6 K, Liquid | 0.7049
410.7 K, Liquid | 0.9324
415.8 K, Liquid | 1.202

Settings | Normal melting temperature [°C]
[2], Crystal | 106.4

NC(=O)c1cccnc1 [3-pyridinecarboxamide]
Settings | Molar enthalpy of transition or fusion [kcal/mol]
[1] | 5.71

[2], Crystal
Settings | vapor or sublimation pressure [kPa]
353.2 K | 0.00036
358.3 K | 0.0006
363.4 K | 0.00104
363.5 K | 0.00105
370.6 K | 0.00207
378.6 K | 0.00436
383.8 K | 0.0069
388.8 K | 0.01096
394.9 K | 0.01844
398.9 K | 0.02467

Settings | Normal melting temperature [°C]
[2], Crystal | 130.1
